Data on one compound can be found in publication PMC7312356 (International Journal of Molecular Sciences, 2020).

The target of this assay is T1, SgGAPDH (Streptococcus gordonii, UniProt Q68AZ3).
T1 construct: gene GAPDH
Description: biochemical.

T1 sequence (Q68AZ3 entry or part of it): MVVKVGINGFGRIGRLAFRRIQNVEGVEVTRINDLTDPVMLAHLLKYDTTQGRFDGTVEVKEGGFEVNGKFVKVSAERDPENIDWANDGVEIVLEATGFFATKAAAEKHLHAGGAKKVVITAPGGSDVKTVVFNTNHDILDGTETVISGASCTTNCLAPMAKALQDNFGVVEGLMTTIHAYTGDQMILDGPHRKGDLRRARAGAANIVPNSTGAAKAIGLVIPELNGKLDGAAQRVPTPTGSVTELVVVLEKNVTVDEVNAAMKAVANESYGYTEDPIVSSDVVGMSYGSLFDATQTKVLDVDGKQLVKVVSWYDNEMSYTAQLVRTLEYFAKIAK

Compound `C=CC1=C(C)C2=Cc3c(C=C)c(C)c4[n]3[Fe]([Cl])[n]3c(c(C)c(CCC(=O)O)c3=CC3=NC(=C4)C(C)=C3CCC(=O)O)=CC1=N2` [Fe(III)heme] gave a dissociation constant (Kd) of 1.7 µM.

Broadly, the Kd is a measure of binding affinity in units of concentration. A higher Kd goes with a looser complex.
